Values after ≈ are worked out from the molar mass of the structure shown. Read-outs that look alike come from different tables or passages of the source.
Key:
HeLa S3 cells = experiment: HeLa S3 Cell Growth Inhibition Test; type: cell-based; conditions: Homo sapiens, 72 hours incubation, Neutral Red
In short: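 HeLa S3 cells seeded overnight in MEM with 10% FBS, then exposed to compound for 72 h at 37 °C. Viable cells stained with Neutral Red, dye extracted, absorbance read at 550 nm; IC50 derived against untreated cells.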

[1] = tested on: Sarcoma 180 mouse solid tumor; experiment: Antitumor activity against Sarcoma 180 mouse solid tumor; type: in vivo, mouse (ddY); conditions: Sarcoma-180, iv, 168 h; for response vs control in vivo at 16 mg/kg: 16 mg/kg i.v. once
Description: To a ddY mouse were intraperitoneally transplanted 5×10^6 sarcoma 180 cells. On the seventh day from the transplant, the cells were collected from the ascites, washed once with sterilized physiological saline, and then diluted with sterilized physiological saline to prepare a cell suspension having a concentration of 5×10^7 cells/mL. This suspension was transplanted in an amount of 0.01 mL to a subcutaneous part of the right axilla of each of male ddY mice each weighing 20±1 g.
A test compound was dissolved in physiological saline containing polyoxyethylene sorbitan monolaurate. At 24 hours after the tumor transplant, 0.2 mL of the solution was intravenously administered to the tail of each of a group of five mice.

[2] = tested on: EH: Enterococcus hirae ATCC 10541; experiment: Antimicrobial activity by the agar dilution method (MIC); type: cell-based; conditions: pH 7
Description: (§1) Antimicrobial activity was determined by the agar dilution method using a culture medium (pH 7) prepared by dissolving 3 g of Bacto-Tryptone (manufactured by Difco, Co.), 3 g of meat extract, 1 g of yeast extract, 1 g of glucose, and 16 g of agar in 1 l of water.

[3] = tested on: SA: Staphylococcus aureus ATCC 6538P; experiment: as above; type: cell-based; conditions: Staphylococcus aureus, ATCC6538P, pH 7, read-out: minimum inhibitory concentration (MIC), SA
Description: as §1

[4] = tested on: BS: Bacillus substilis No. 10707; experiment: as above; type: cell-based; conditions: Bacillus, pH 7, read-out: minimum inhibitory concentration (MIC), BS
Description: as §1

[5] = tested on: KP: Klebisiella pneumoniae ATCC 10031; experiment: as above; type: cell-based; conditions: pH 7, read-out: minimum inhibitory concentration (MIC), KP
Description: as §1

[6] = read-out: T/C (tumor volume ratio treated/control)
[7] = HeLa S3, 72 h, HeLa S3, read-out: IC50, HeLa S3 cell growth inhibition
[8] = 24 hours after transplant, tumor volume on day 7, read-out: T/C (tumor volume ratio treated/control)
[9] = 8.0 mg/kg i.v. once, 24 hours after transplant, tumor volume on day 7, read-out: T/C (tumor volume ratio treated/control)

Q: How did the IC50 (HeLa S3 cells; HeLa S3, 72 h, read-out: IC50, HeLa S3 cell growth inhibition, HeLa S3) turn out when C/C1=C\C(OC2CCCCO2)C(=O)/C=C/C=C\c2csc(n2)C(C)N2C(=O)CC(C(C)(O)C(=O)SCc3oc(=O)oc3COC(=O)c3cnc4ccccc4n3)(CC1)[S+]2[O-] (stereo not shown) [Compound 94] was run?
A: 33 nM

Q: And the response vs control in vivo at 8 mg/kg [1, 6]?
A: 43%

Q: For CC(=O)NCC(=O)OCc1oc(=O)oc1CSC(=O)C(C)(O)C12CC/C(C)=C/C(OC3CCCCO3)C(=O)/C=C/C=C\c3csc(n3)C(C)N(C(=O)C1)[S+]2[O-] (stereo not shown) [Compound 98], which IC50 (HeLa S3 cells; [7]) is on record?
A: 70 nM

Q: And the response vs control in vivo at 16 mg/kg [1, 8]?
A: 40%

Q: For COCCOCC(=O)OCc1oc(=O)oc1CSC(=O)C(C)(O)C12CC/C(C)=C/C(O)C(=O)/C=C/C=C\c3csc(n3)C(C)N(C(=O)C1)[S+]2[O-] (stereo not shown) [Compound 99], which IC50 (HeLa S3 cells; [7]) is on record?
A: 87 nM

Q: What about the response vs control in vivo at 8 mg/kg [1, 9] of the same molecule?
A: 40%

Q: What does the source list for COCCOCCOCC(=O)OCc1oc(=O)oc1CSC(=O)C(C)(O)C12CC/C(C)=C/C(O)C(=O)/C=C/C=C\c3csc(n3)C(C)N(C(=O)C1)[S+]2[O-] (stereo not shown) [Compound 101]?
A: IC50 (HeLa S3 cells; [7]): 100 nM; response vs control in vivo at 16 mg/kg [1, 8]: 27%

Q: What does the source list for COCCOCCOCC(=O)OCc1oc(=O)oc1CSC(=O)C(C)(O)C12CC/C(C)=C/C(OC3CCCCO3)C(=O)/C=C/C=C\c3csc(n3)C(C)N(C(=O)C1)[S+]2[O-] (stereo not shown) [Compound 102]?
A: IC50 (HeLa S3 cells; [7]): 38 nM; response vs control in vivo at 16 mg/kg [1, 8]: 46%

Q: For C=C(CSC(=O)C(C)(O)C12CC/C(C)=C/C(OC3CCCCO3)C(=O)/C=C/C=C\c3csc(n3)C(C)N(C(=O)C1)[S+]2[O-])C(=O)OC (stereo not shown) [Compound 112], which IC50 (HeLa S3 cells; [7]) is on record?
A: 64 nM

Q: What about the response vs control in vivo at 8 mg/kg [1, 9] of the same molecule?
A: 24%

Q: Which results are given for COC1(OC2/C=C(\C)CCC3(C(C)(O)C(=O)SCC4=C(C)OC(C)(C)OC4=O)CC(=O)N(C(C)c4nc(cs4)/C=C\C=C\C2=O)[S+]3[O-])CCOCC1 (stereo not shown) [Compound 122]?
A: IC50 (HeLa S3 cells; [7]): 1800 nM; response vs control in vivo at 16 mg/kg [1, 8]: 37%

Q: CC1=C(CSC(=O)C(C)(O)C23CC/C(C)=C/C(OC4CCCCO4)C(=O)/C=C/C=C\c4csc(n4)C(C)N(C(=O)C2)[S+]3[O-])C(=O)OC(C)(C)O1 (stereo not shown) [Compound 123] was tested. Which IC50 (HeLa S3 cells; [7]) did it give?
A: 600 nM

Q: What about the response vs control in vivo at 16 mg/kg [1, 8] of the same molecule?
A: 14%

Q: How did the IC50 (HeLa S3 cells; [7]) turn out when CC1=C(CSC(=O)C(C)(O)C23CC/C(C)=C/C(OC4CCCCO4)C(=O)/C=C/C=C\c4csc(n4)C(C)N(C(=O)C2)[S+]3[O-])C(=O)OC2(CCOCC2)O1 (stereo not shown) [Compound 125] was run?
A: 47 nM

Q: And the response vs control in vivo at 16 mg/kg [1, 8]?
A: 43%

Q: Which IC50 (HeLa S3 cells; HeLa S3, read-out: IC50, HeLa S3 cell growth inhibition) does the source give for CCOC(=O)N1CCC2(CC1)OC(=O)C(CSC(=O)C(C)(O)C13CC/C(C)=C/C(OC4CCCCO4)C(=O)/C=C/C=C\c4csc(n4)C(C)N(C(=O)C1)[S+]3[O-])=C(C)O2 (stereo not shown) [Compound 127] here?
A: 33 nM

Q: What about the response vs control in vivo at 16 mg/kg [1, 8] of the same molecule?
A: 29%

Q: Which results are given for C/C1=C\C(O)C(=O)/C=C/C=C\c2csc(n2)C(C)N2C(=O)CC(C(C)(O)C(=O)SCOC(=O)CCCNC(=O)C(C)(CO)CO)(CC1)[S+]2[O-] (stereo not shown) [Compound 139]?
A: minimum inhibitory concentration (MIC), EH [2]: 12 µg/mL (≈ 16.2 µM); MIC [3]: 25 µg/mL (≈ 33.7 µM); MIC [4]: 12 µg/mL (≈ 16.2 µM); MIC [5]: 25 µg/mL (≈ 33.7 µM); response vs control in vivo at 4 mg/kg [1, 6]: 33%

Q: Which results are given for C/C1=C\C(O)C(=O)/C=C/C=C\c2csc(n2)C(C)N2C(=O)CC(C(C)(O)C(=O)SCOC(=O)CCCNC(=O)[C@@H]3CCC(=O)N3)(CC1)[S+]2[O-] (stereo partly shown) [Compound 144]?
A: minimum inhibitory concentration (MIC), EH [2]: 5.8 µg/mL (≈ 7.87 µM); MIC [3]: 12 µg/mL (≈ 16.3 µM); MIC [4]: 12 µg/mL (≈ 16.3 µM); MIC [5]: 12 µg/mL (≈ 16.3 µM); response vs control in vivo at 8 mg/kg [1, 6]: 26%

Q: Which “minimum inhibitory concentration (MIC), EH” value [2] does the source give for C/C1=C\C(O)C(=O)/C=C/C=C\c2csc(n2)C(C)N2C(=O)CC(C(C)(O)C(=O)SCOC(=O)CCCN3CCCC3=O)(CC1)[S+]2[O-] (stereo not shown) [Compound 145] here?
A: 7.7 µg/mL (≈ 11.1 µM)

Q: What about the MIC [3] of the same molecule?
A: 15 µg/mL (≈ 21.6 µM)

Q: What about the MIC [4] of the same molecule?
A: 7.7 µg/mL (≈ 11.1 µM)

Q: What about the MIC [5] of the same molecule?
A: 7.7 µg/mL (≈ 11.1 µM)

Q: What about the response vs control in vivo at 4 mg/kg [1, 6] of the same molecule?
A: 23%

Q: Which results are given for C/C1=C\C(O)C(=O)/C=C/C=C\c2csc(n2)C(C)N2C(=O)CC(C(C)(O)C(=O)SCc3oc(=O)oc3COC(=O)CN(C)C)(CC1)[S+]2[O-] (stereo not shown) [Compound 158]?
A: minimum inhibitory concentration (MIC), EH [2]: 0.33 µg/mL (≈ 0.456 µM); MIC [3]: 0.33 µg/mL (≈ 0.456 µM); MIC [4]: < 0.041 µg/mL; MIC [5]: 1.3 µg/mL (≈ 1.8 µM); response vs control in vivo at 32 mg/kg [1, 6]: 31%
